# According to patent US20090005385A1, “Treatment or Prevention of Cancer or Cardiovascular Disease with Methenyltetrahydrofolate Synthetases” (CORNELL RESEARCH FOUNDATION, INC., priority 2004, published 2009):
# Values joined by “and” are separate entries in the source; they are usually repeats but may differ in a detail not shown here. Equal values may be shown once. Read-outs that look alike come from different tables or passages of the source.
# What was measured:
# MTHFS [1] = molecular target: T1, MTHFS (Mus musculus, UniProt Q9D110); experiment: Inhibition of MTHFS by folates/antifolates, reaction specificity (Ki, Km); format: biochemical; conditions: for Km: substrate of MTHFS
# T1 sequence (Q9D110 1-203): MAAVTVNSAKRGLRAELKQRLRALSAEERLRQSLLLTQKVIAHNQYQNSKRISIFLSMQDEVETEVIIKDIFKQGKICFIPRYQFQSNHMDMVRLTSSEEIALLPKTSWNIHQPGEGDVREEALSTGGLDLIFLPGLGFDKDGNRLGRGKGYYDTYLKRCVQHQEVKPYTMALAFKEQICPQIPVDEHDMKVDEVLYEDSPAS
# Procedure: Tissue samples were sonicated four times for 15 s in a buffer containing 100 mM HEPES pH 7.0, 100 mM sodium chloride, 5 mM EDTA, 1% Tween-20. The solution was clarified by centrifugation. MTHFS activity was determined using a spectrophotometer by monitoring the appearance of 5,10-methenyltetrahydrofolate, which has an absorbance maximum at 355 nm. For a typical assay, 50 μL of clarified tissue supernatant was added to a quartz cuvette containing 100 μM (6S)-5-formylTHF, 1 mM Mg-ATP and 100 mM MES, pH 6.0 and the rate of 5,10-methenylTHF formation was quantified. Activity measurements were normalized to total protein that was quantified using the Lowry-Bensadoun method (Bensadoun et al., “Assay of Proteins in the Presence of Interfering Materials,” Anal Biochem 70:241-250 (1976), which is hereby incorporated by reference in its entirety).
# Several 10-formyl-substituted folates were screened for their ability to inhibit wild-type MTHFS.
# [2] = molecular target: T2, MTHFS.oxNADA.Cu^2+ complex (Mus musculus, UniProt Q9D110); experiment: MTHFS-mediated folate catabolism in vitro (HPLC, pABG formation); format: biochemical; conditions: 5 min incubation, five independent experiments
# T2 construct: hexa-histidine tag; made in house; host or cells: E. coli BL21 Star
# T2 sequence (Q9D110 1-203): T1 sequence (Q9D110 1-203)
# Procedure: Recombinant mouse MTHFS protein (50 μM) was incubated with 50 μM CuCl2, 50 μM NADA (oxidized with equimolar amounts of sodium periodate, extracted with ethyl acetate, and diluted 1:1 with 1 M Tris pH 8.0), in 50 mM Tris pH 8.0 for 5 min, then dialyzed against 2 L of 50 mM Tris pH 8.0 at 4° C. for 5 hours to remove unbound CuCl2 and oxidized NADA. (6S)-[^3H]-5-methylTHF or (6S)-[^3H]-5-formylTHF, were evaporated to dryness using a speedvac, resuspended in 20 μL of 50 μM unlabeled (6S)-5-methylTHF or (6S)-5-formylTHF in 100 mM MES pH 6.5, then approximately 275,000 cpm of the labeled folate was added immediately to either the dialyzed mouse MTHFS protein or the dialysis buffer as a control. The mixture was incubated 5 min at room temperature, then either analyzed immediately by HPLC or flash frozen using dry ice/ethanol. The reactions were spiked with a mixture of unlabeled pABG, (6R,S)-5-formylTHF, and (6S)-5-methylTHF, then analyzed on a Shimadzu HPLC equipped with a diode array UV spectrophotometric detector and a Luna 5μ 250×4.6 mm C18 column (Phenomenex). […] For each analysis, 1.0 ml fractions were collected into scintillation tubes, and the tritium was quantified using a Beckman LS 6500 liquid scintillation counter. […]
# MTHFS [3] = molecular target: T3, MTHFS (Homo sapiens, UniProt P49914); conditions: cited from earlier work
# T3 sequence (P49914 1-203): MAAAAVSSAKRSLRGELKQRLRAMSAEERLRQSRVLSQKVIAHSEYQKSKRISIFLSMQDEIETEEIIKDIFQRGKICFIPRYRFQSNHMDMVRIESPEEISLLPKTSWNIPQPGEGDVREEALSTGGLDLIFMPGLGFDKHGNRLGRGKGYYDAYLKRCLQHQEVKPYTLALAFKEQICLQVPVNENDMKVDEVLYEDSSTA
# MCF-7 cells [4] = experiment: Folate turnover in cultured cells (pulse-chase); format: cell-based, human; conditions: 20 μM in chase medium
# Procedure: Cell monolayers at 75% confluence were washed with PBS, then labeled for 12 h in defined αMEM lacking folate and glycine and supplemented with 25 nM (6S)-[^3H]5-formylTHF. For the chase, cell monolayers were washed with 10 ml of PBS, trypsinized, and pelleted by centrifugation. The cells were seeded in triplicate (1×10^6 cells) into 100 mm culture plates containing 10 ml of defined αMEM supplemented with 2 μM folic acid. Catecholamines (20 μM dopamine, NADA, and L-dopa) were prepared freshly and added to the chase media prior to the addition of labeled cells. Cells were harvested at defined time points, the medium was removed and the tritium in the medium was quantified. The cell monolayers were washed with PBS and lysed with 0.2 M ammonium hydroxide. Tritium remaining in the cells was quantified using a Beckman LS 8100 liquid scintillation counter.
# Catecholamine availability may be rate limiting for MTHFS-catalyzed folate catabolism in MCF-7 cells. The effects of exogenous catecholamines on folate turnover rates were determined using pulse-chase analyses in MCF-7 cells. Folate turnover in MCF-7 cells labeled with [^3H]-5-formylTHF is biphasic, with an initial rapid phase of turnover followed by a slower phase (Anguera et al., J. Biol. Chem. 278:29856-29862 (2003), which is hereby incorporated by reference in its entirety). Addition of 20 μM NADA to the chase medium increased the magnitude of the rapid phase of folate turnover by 12% compared to untreated cells (FIG. 11A). […] To distinguish between these two mechanisms, 20 μM dopamine and L-dopa were added to the chase medium. Dopamine is the precursor of NADA, and both dopamine and L-dopa can function as oxidants following oxidation of their diphenolic ring generating dopamine-quinone or dopa-quinone (Rescigno et al., Biochemical Pharmacology 56:1089-1096 (1998); Graham, D. G. Mol. Pharmacol. 14:633-643 (1978), which are hereby incorporated by reference in their entirety). […] The addition of dopamine to the culture medium increased the magnitude of the rapid phase of folate turnover by only 4% relative to untreated cells (FIG. 11A). The minor effect of dopamine on folate turnover may reflect N-acetyltransferase-mediated dopamine acetylation that generating NADA. […] In summary, the pulse chase experiments indicate that NADA may be limiting for in vivo folate catabolism, and NADA may function specifically as the electron acceptor molecule for MTHFS-mediated folate catabolism.
# MCF-7 cells [5] = experiment: Radiolabeled folate accumulation in cultured cells treated with catecholamines; format: cell-based, human; conditions: 12 h, 25 nM (6S)-[^3H]-5-formylTHF, 0-150 μM catecholamine
# Procedure: Cell monolayers at 70% confluence in 6-well plates were labeled for 12 h in defined αMEM lacking folate and glycine, but supplemented with 25 nM (6S)-[^3H]5-formylTHF and 0, 25 μM, 50 μM, 75 μM, 100 μM, or 150 μM NADA, dopamine, or epinephrine. Cells were harvested by washing with 5 mL PBS, trypsinized, and pelleted by centrifugation and viable cells (determined by their ability to exclude trypan blue) were quantified. The cell pellets were lysed with 0.2 M ammonium hydroxide, and the intracellular tritium was quantified using a Beckman LS 8100 liquid scintillation counter.
# Because the addition of NADA to the chase medium increased folate turnover rates in MCF-7 cells, the effects of various catecholamines on [^3H]folate accumulation was investigated. Cells were cultured for 12 h in defined αMEM medium containing 25 nM (6S)-[^3H]-5-formylTHF and various concentrations of NADA, dopamine, and epinephrine, and cellular [^3H]folate content was determined.
# [6] = 37° C., pH 6.0, inhibitor of MTHFS, read-out: Ki
SMILES,Ki (MTHFS [1]; [6]) [µM],further results
"CN(CC1CNc2nc(N)[nH]c(=O)c2N1C=O)c1ccc(C(=O)N[C@@H](CCC(=O)N[C@@H](CCC(=O)N[C@@H](CCC(=O)O)C(=O)O)C(=O)O)C(=O)O)cc1 (mixture of isomers) [(6RS)5-formyl,10-methylTHFGlu3]",20 ± 2,
"CN(CC1CNc2nc(N)[nH]c(=O)c2N1C=O)c1ccc(C(=O)N[C@@H](CCC(=O)O)C(=O)O)cc1 (mixture of isomers) [(6RS)5-formyl,10-methylTHF]",10 ± 1,
"CN(CCC1CNc2nc(N)[nH]c(=O)c2N1C=O)c1ccc(C(=O)N[C@@H](CCC(=O)O)C(=O)O)cc1 (mixture of isomers) [(6RS)5-formyl,10-methylTHHF]",6 ± 3,
Nc1nc2c(c(=O)[nH]1)N(C=O)C(CNc1ccc(C(=O)NC(CCC(=O)NC(CCC(=O)NC(CCC(=O)O)C(=O)O)C(=O)O)C(=O)O)cc1)CN2 (racemic) [(6RS)5-formylTHFGlu3],,"Km (MTHFS [1]; 37° C., pH 6.0): 0.4 ± 0.1 µM"
"Nc1nc2c(c(=O)[nH]1)N(C=O)C(CCNc1ccc(C(=O)N[C@@H](CCC(=O)O)C(=O)O)cc1)CN2 (mixture of isomers) [(6RS)5-formylTHHF, 5-formyltetrahydrohomofolate]",0.7 ± 0.3,
Nc1nc2c(c(=O)[nH]1)N(C=O)C(CNc1ccc(C(=O)O)cc1)CN2 (racemic) [(6RS)5-formylTHPteroate],,"Km (MTHFS [1]; 37° C., pH 6.0): 33 ± 10 µM"
Nc1nc2c(c(=O)[nH]1)NC(CN(C=O)c1ccc(C(=O)N[C@@H](CCC(=O)N[C@@H](CCC(=O)N[C@@H](CCC(=O)O)C(=O)O)C(=O)O)C(=O)O)cc1)CN2 (mixture of isomers) [(6RS)10-formylTHFGlu3],0.03 ± 0.01,fold increased affinity (Ki) compared to the substrate 5-formylTHF triglutamate (Km) (MTHFS [1]): 13 fold
Nc1nc2c(c(=O)[nH]1)NC(CCN(C=O)c1ccc(C(=O)NC(CCC(=O)O)C(=O)O)cc1)CN2 (racemic) [(6RS)10-formylTHHF],0.19 ± 0.02,Ki fold lower than the Ki for 5-formylTHHF (MTHFS [1]): 3 fold
Nc1nc2c(c(=O)[nH]1)NC(CN(C=O)c1ccc(C(=O)O)cc1)CN2 (racemic) [(6RS)10-formylTHPteroate],5 ± 2,
Nc1nc2c(c(=O)[nH]1)NC(CN(C=O)c1ccc(C(=O)N[C@@H](CCC(=O)N[C@@H](CCC(=O)N[C@@H](CCC(=O)O)C(=O)O)C(=O)O)C(=O)O)cc1)CN2 (stereo partly drawn) [10-formylTHF triglutamate],,"Ki (MTHFS [1]; natural isomer, read-out: Ki for MTHFS): 0.015 µM"
Nc1nc2ncc(CN(C=O)c3ccc(C(=O)N[C@@H](CCC(=O)O)C(=O)O)cc3)nc2c(=O)[nH]1 [10-formylfolic acid],13 ± 6,fold increase of affinity for MTHFS by N^10 formylation of folic acid (MTHFS [1]; relative to folic acid): ~5 fold
"Nc1nc2c(c(=O)[nH]1)NC(CN(C=O)c1ccc(C(=O)N[C@@H](CCC(=O)O)C(=O)O)cc1)CN2 (stereo partly drawn) [(6R)10-formylTHF, 10-formyltetrahydrofolate]",0.15,fold increased affinity for MTHFS (Ki) compared to the substrate 5-formylTHF (Km) (MTHFS [1]): 56 fold and 60 fold
"Nc1nc2c(c(=O)[nH]1)N(C=O)C(CNc1ccc(C(=O)N[C@@H](CCC(=O)O)C(=O)O)cc1)CN2 (stereo partly drawn) [(6S)5-formylTHF, 5-formyl tetrahydrofolate]",,"Km (MTHFS [1]; 37° C., pH 6.0): 10 ± 3 µM"
CN1c2c([nH]c(N)nc2=O)NC[C@@H]1CNc1ccc(C(=O)N[C@@H](CCC(=O)O)C(=O)O)cc1 [(6S)-5-methylTHF],,conversion to pABG by reconstituted mouse MTHFS.oxNADA.Cu^2+ protein [2]: Approximately 1%; Ki (MTHFS [3]): 18 µM
N[C@@H](Cc1ccc(O)c(O)c1)C(=O)O [L-dopa],,folate turnover rates compared to untreated cells (MCF-7 cells [4]): did not affect folate turnover rates
CNC[C@H](O)c1ccc(O)c(O)c1 [epinephrine],,[^3H]folate accumulation (MCF-7 cells [5]): Neither the addition of dopamine nor epinephrine to culture media impaired [^3H]folate accumulation
Nc1nc2ncc(CNc3ccc(C(=O)N[C@@H](CCC(=O)N[C@@H](CCC(=O)N[C@@H](CCC(=O)O)C(=O)O)C(=O)O)C(=O)O)cc3)nc2c(=O)[nH]1 [folic acidGlu3],17 ± 3,
Nc1nc2ncc(CNc3ccc(C(=O)NC(CCC(=O)NC(CCC(=O)NC(CCC(=O)NC(CCC(=O)NC(CCC(=O)O)C(=O)O)C(=O)O)C(=O)O)C(=O)O)C(=O)O)cc3)nc2c(=O)[nH]1 (stereo not drawn) [folic acidGlu5],1 ± 0.3,
Nc1nc2ncc(CNc3ccc(C(=O)N[C@@H](CCC(=O)O)C(=O)O)cc3)nc2c(=O)[nH]1 [folic acid],58 ± 5,
